Measured values reported in patent US11702429B2, “mTORC modulators and uses thereof” (Aeovian Pharmaceuticals, Inc., priority 2019, dated 2023).
Read-outs that look alike come from different tables or passages of the source.

What was measured:
mTORC1 = biological target: T1, mTORC1 (Homo sapiens, UniProt P42345+P62942); assay: Inhibition assay for mTORC1: phosphorylation of pS6K at Thr389, AlphaLISA in PC3 cells; format: cell-based; conditions: read-out: pIC50 mTORC1 (converted)
T1 construct: endogenous in cells; host or cells: PC3 cells (human prostate adenocarcinoma)

mTORC2 = biological target: T2, mTORC2 (Homo sapiens, UniProt P42345+P62942); assay: Inhibition assay for mTORC2: phosphorylation of pAkt at Ser473, AlphaLISA in PC3 cells; format: cell-based; conditions: read-out: pIC50 mTORC2 (converted)
T2 construct: endogenous in cells; host or cells: PC3 cells (human prostate adenocarcinoma)

[1] = PC3 cells, treated 24 hours, pS6K Thr389, AlphaLISA, C16 diastereomer mixtures not separated
[2] = PC3 cells, treated 24 hours, pAkt Ser473, AlphaLISA, C16 diastereomer mixtures not separated

T2 sequence (P62942 2-108 limits assumed, other chains not shown): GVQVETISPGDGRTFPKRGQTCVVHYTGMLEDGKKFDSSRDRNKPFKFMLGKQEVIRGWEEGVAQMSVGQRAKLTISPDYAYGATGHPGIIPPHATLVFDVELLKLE

For `CO[C@@H]1C[C@H](C[C@@H](C)[C@@H]2CC(=O)[C@H](C)/C=C(\C)[C@@H](O)[C@@H](OC)C(=O)[C@H](C)C[C@H](C)/C=C/C=C/C=C(\C)C(OCCOCCO)C[C@@H]3CC[C@@H](C)[C@@](O)(O3)C(=O)C(=O)N3CCCCC3C(=O)O2)CC[C@H]1O` (some centres unmarked) [Compound 224], the IC50 (mTORC1) was 0.316 to 3.16 nM and the IC50 (mTORC2) was greater than 10000 nM.

Compound `CO[C@@H]1C[C@H](C[C@@H](C)[C@@H]2CC(=O)[C@H](C)/C=C(\C)[C@@H](O)[C@@H](OC)C(=O)[C@H](C)C[C@H](C)/C=C/C=C/C=C(\C)C(OCCO)C[C@@H]3CC[C@@H](C)[C@@](O)(O3)C(=O)C(=O)N3CCCC[C@H]3C(=O)O2)CC[C@H]1OCCN1CCCCC1` (mixture of isomers) [Compound 61] has an IC50 (mTORC1; [1]) of 0.316 to 3.16 nM and an IC50 (mTORC2; [2]) greater than 10000 nM.

Compound `CO[C@@H]1C[C@H](C[C@@H](C)[C@@H]2CC(=O)[C@H](C)/C=C(\C)[C@@H](O)[C@@H](OC)C(=O)[C@H](C)C[C@H](C)/C=C/C=C/C=C(\C)C(OC[C@@H](C)O)C[C@@H]3CC[C@@H](C)[C@@](O)(O3)C(=O)C(=O)N3CCCC[C@H]3C(=O)O2)CC[C@H]1OCCO` (mixture of isomers) [Compound 49] has an IC50 (mTORC1; [1]) of 0.316 to 3.16 nM and an IC50 (mTORC2; [2]) greater than 10000 nM.

Work on `CO[C@@H]1C[C@H](C[C@@H](C)[C@@H]2CC(=O)[C@H](C)/C=C(\C)[C@@H](O)[C@@H](OC)C(=O)[C@H](C)C[C@H](C)/C=C/C=C/C=C(\C)C(OCCCCO)C[C@@H]3CC[C@@H](C)[C@@](O)(O3)C(=O)C(=O)N3CCCC[C@H]3C(=O)O2)CC[C@H]1OCCCN1CCOCC1` (mixture of isomers) [Compound 27] yielded an IC50 (mTORC1; [1]) of less than 0.316 nM and an IC50 (mTORC2; [2]) of 1000 to 10000 nM.

`COCCCO[C@@H]1CC[C@@H](C[C@@H](C)[C@@H]2CC(=O)[C@H](C)/C=C(\C)[C@@H](O)[C@@H](OC)C(=O)[C@H](C)C[C@H](C)/C=C/C=C/C=C(\C)C(OC)C[C@@H]3CC[C@@H](C)[C@@](O)(O3)C(=O)C(=O)N3CCCCC3C(=O)O2)C[C@H]1OC` (stereo partly drawn) [Compound 308, (1R,9S,12S,15R,16E,18R,19R,21R,23S,24E,26E,28E,30S,32S,35R)-1,18-dihydroxy-19,30-dimethoxy-12-[(1R)-2-[(1S,3R,4R)-3-methoxy-4-(3-methoxypropoxy)cyclohexyl]-1-methyl-ethyl]-15,17,21,23,29,35-hexamethyl-11,36-dioxa-4-azatricyclo[30.3.1.0^4,9]hexatriaconta-16,24,26,28-tetraene-2,3,10,14,20-pentone] gave an IC50 (mTORC1) of less than 0.316 nM and an IC50 (mTORC2) of less than 1000 nM.

`CO[C@@H]1C[C@H](C[C@@H](C)[C@@H]2CC(=O)[C@H](C)/C=C(\C)[C@@H](O)[C@@H](OC)C(=O)[C@H](C)C[C@H](C)/C=C/C=C/C=C(\C)C(OC3COC3)C[C@@H]3CC[C@@H](C)[C@@](O)(O3)C(=O)C(=O)N3CCCCC3C(=O)O2)CC[C@H]1O` (some centres unmarked) [Compound 218] was tested, and the IC50 (mTORC1) was 0.316 to 3.16 nM and the IC50 (mTORC2) was greater than 10000 nM.

Work on `COC1C[C@@H]2CC[C@@H](C)[C@@](O)(O2)C(=O)C(=O)N2CCCCC2C(=O)O[C@H]([C@H](C)C[C@@H]2CC[C@@H](OC(=O)NCCN3CCOCC3)[C@H](OC)C2)CC(=O)[C@H](C)/C=C(\C)[C@@H](O)[C@@H](OC)C(=O)[C@H](C)C[C@H](C)/C=C/C=C/C=C/1C` (some centres unmarked) [Compound 336] yielded an IC50 (mTORC1) of less than 0.316 nM and an IC50 (mTORC2) of less than 1000 nM.

Compound `COCO[C@@H]1CC[C@@H](C[C@@H](C)[C@@H]2CC(=O)[C@H](C)/C=C(\C)[C@@H](O)[C@@H](OC)C(=O)[C@H](C)C[C@H](C)/C=C/C=C/C=C(\C)C(OC)C[C@@H]3CC[C@@H](C)[C@@](O)(O3)C(=O)C(=O)N3CCCCC3C(=O)O2)C[C@H]1OC` (some centres unmarked) [Compound 301] has an IC50 (mTORC1) of less than 0.316 nM and an IC50 (mTORC2) of less than 1000 nM.

Work on `COC1C[C@@H]2CC[C@@H](C)[C@@](O)(O2)C(=O)C(=O)N2CCCCC2C(=O)O[C@H]([C@H](C)C[C@@H]2CC[C@@H](OC(=O)NCCc3ccncc3)[C@H](OC)C2)CC(=O)[C@H](C)/C=C(\C)[C@@H](O)[C@@H](OC)C(=O)[C@H](C)C[C@H](C)/C=C/C=C/C=C/1C` (some centres unmarked) [Compound 334] yielded an IC50 (mTORC1) of less than 0.316 nM and an IC50 (mTORC2) of less than 1000 nM.

`COC1C[C@@H]2CC[C@@H](C)[C@@](O)(O2)C(=O)C(=O)N2CCCCC2C(=O)O[C@H]([C@H](C)C[C@@H]2CC[C@@H](OCCO)[C@H](OC)C2)CC(=O)[C@H](C)/C=C(\C)[C@@H](O)[C@@H](OC)C(=O)[C@H](C)C[C@H](C)/C=C/C=C/C=C/1C` (some centres unmarked) [Compound 306] was tested, and the IC50 (mTORC1) was less than 0.316 nM and the IC50 (mTORC2) was less than 1000 nM.

For `COC1CC2CCC(C)C(O)(O2)C(=O)C(=O)N2CCCCC2C(=O)OC(C(C)CC2CCC(OCCc3ccccc3)C(OC)C2)CC(=O)C(C)C=C(C)C(O)C(OC)C(=O)C(C)CC(C)C=CC=CC=C1C` (centres unmarked) [Compound 348], the IC50 (mTORC1) was less than 0.316 nM and the IC50 (mTORC2) was less than 1000 nM.

For `COC1C[C@@H]2CC[C@@H](C)[C@@](O)(O2)C(=O)C(=O)N2CCCCC2C(=O)O[C@H]([C@H](C)C[C@@H]2CC[C@@H](OC(=O)N(C)CCCO)[C@H](OC)C2)CC(=O)[C@H](C)/C=C(\C)[C@@H](O)[C@@H](OC)C(=O)[C@H](C)C[C@H](C)/C=C/C=C/C=C/1C` (some centres unmarked) [Compound 338], the IC50 (mTORC1) was less than 0.316 nM and the IC50 (mTORC2) was less than 1000 nM.

In the case of `CO[C@@H]1C[C@H](C[C@@H](C)[C@@H]2CC(=O)[C@H](C)/C=C(\C)[C@@H](O)[C@@H](OC)C(=O)[C@H](C)C[C@H](C)/C=C/C=C/C=C(\C)C(OCCCCO)C[C@@H]3CC[C@@H](C)[C@@](O)(O3)C(=O)C(=O)N3CCCCC3C(=O)O2)CC[C@H]1O` (some centres unmarked) [Compound 221], the IC50 (mTORC1) is reported as less than 0.316 nM and the IC50 (mTORC2) is reported as 1000 to 10000 nM.
